According to DBAASP:
Values after ≈ are worked out from the molar mass of the structure shown.

Key:
Test in all cases: ≥ marks a high value that may be exact or a test limit, other limits are often not marked, values filed in µg/mL are converted to µM
[1] = system: Staphylococcus aureus NCTC 12493
[2] = system: Candida albicans NCYC 1467
[3] = system: Pseudomonas aeruginosa ATCC 27853
[4] = system: Staphylococcus aureus NCTC 10788
[5] = system: Escherichia coli NCTC 10418
[6] = system: Bacillus subtilis 168
[7] = system: Pseudomonas aeruginosa
[8] = system: Staphylococcus aureus
[9] = system: Escherichia coli B
[10] = system: Candida albicans F7-39/IDE99
[11] = system: Escherichia coli
[12] = system: Bacillus subtilis
[13] = system: Candida albicans ATCC 2002
[14] = system: Staphylococcus aureus ATCC 25923
[15] = system: Escherichia coli ATCC 25922
[16] = system: Pseudomonas aeruginosa CMCCB 10104
[17] = system: Escherichia coli JM109
[18] = system: Staphylococcus aureus ATCC 6538P
[19] = system: Escherichia coli W160-37

SMILES	MIC [8] [µM]	MIC [13] [µM]	MIC [14] [µM]	MIC [15] [µM]	MIC [16] [µM]	further results
CC[C@H](C)[C@H](NC(=O)CNC(=O)[C@@H](NC(=O)[C@H](C)NC(=O)[C@@H](NC(=O)[C@H](CCCCN)NC(=O)[C@@H]1CCCN1C(=O)[C@@H](NC(=O)[C@H](CC(C)C)NC(=O)[C@H](CO)NC(=O)[C@H](CC(C)C)NC(=O)[C@@H](N)Cc1ccccc1)[C@@H](C)CC)[C@@H](C)CC)[C@@H](C)O)C(=O)N[C@@H](C)C(=O)N[C@@H](C)C(=O)N[C@@H](CC(C)C)C(=O)N[C@@H](C)C(=O)N[C@@H](CCCCN)C(=O)N[C@@H](Cc1cnc[nH]1)C(=O)N[C@@H](CC(C)C)C(N)=O [FLSLIPKIATGIAALAKHL]	–	–	–	–	–	MIC [1]: 2 µM (≈ 3.95 µg/mL); MIC [2]: 2 µM (≈ 3.95 µg/mL); MIC [3]: 32 µM (≈ 63.2 µg/mL); MIC [4]: 2 µM (≈ 3.95 µg/mL); MIC [5]: 8 µM (≈ 15.8 µg/mL)
CC[C@H](C)[C@H](NC(=O)[C@H](Cc1cnc[nH]1)NC(=O)[C@H](CCCCN)NC(=O)[C@H](CC(C)C)NC(=O)[C@H](CC(C)C)NC(=O)[C@H](CO)NC(=O)[C@H](CC(C)C)NC(=O)[C@H](Cc1c[nH]c2ccccc12)NC(=O)[C@H](CCCCN)NC(=O)CN)C(=O)N[C@@H](CC(C)C)C(=O)N[C@@H](CCCCN)C(N)=O [GKWLSLLKHILK]	5.5 (≈ 7.89 µg/mL)	–	–	–	–	MIC [6]: 0.9 µM (≈ 1.29 µg/mL); MIC [7]: 31.7 µM (≈ 45.5 µg/mL); MIC [9]: 1.8 µM (≈ 2.58 µg/mL); MIC [10]: 8.7 µM (≈ 12.5 µg/mL)
CC[C@H](C)[C@H](NC(=O)[C@H](Cc1cnc[nH]1)NC(=O)[C@H](CCCCN)NC(=O)[C@H](CC(C)C)NC(=O)[C@H](CC(C)C)NC(=O)[C@H](CO)NC(=O)[C@H](Cc1c[nH]c2ccccc12)NC(=O)[C@H](Cc1c[nH]c2ccccc12)NC(=O)[C@H](CCCCN)NC(=O)CN)C(=O)N[C@@H](CC(C)C)C(=O)N[C@@H](CCCCN)C(N)=O [GKWWSLLKHILK]	4.7 (≈ 7.09 µg/mL)	–	–	–	–	MIC [7]: 50 µM (≈ 75.4 µg/mL); MIC [11]: 1.6 µM (≈ 2.41 µg/mL); MIC [12]: 0.6 µM (≈ 0.905 µg/mL); MIC [10]: 5.3 µM (≈ 7.99 µg/mL)
CC[C@H](C)[C@H](NC(=O)[C@H](CC(C)C)NC(=O)[C@H](CCCCN)NC(=O)[C@H](C)NC(=O)[C@H](C)NC(=O)CNC(=O)[C@H](CCCCN)NC(=O)[C@@H](NC(=O)[C@H](CC(C)C)NC(=O)[C@@H](NC(=O)[C@H](Cc1ccccc1)NC(=O)[C@H](CC(C)C)NC(=O)CN)[C@@H](C)O)[C@@H](C)CC)C(=O)NCC(=O)N[C@@H](CCCCN)C(=O)N[C@H](C(=O)N[C@H](C(=O)N[C@@H](C)C(=O)N[C@@H](CCCCN)C(=O)N[C@@H](CCC(=O)O)C(=O)N[C@@H](C)C(=O)NCC(=O)N[C@@H](CCCCN)C(=O)N[C@H](C(=O)NCC(=O)N[C@@H](CCCCN)C(=O)N[C@@H](CC(C)C)C(=O)N[C@@H](CCC(=O)O)C(=O)N[C@@H](CCSC)C(=O)N[C@@H](C)C(=O)N[C@H]1CSSC[C@@H](C(=O)O)NC(=O)[C@H](CCC(N)=O)NC(=O)[C@H](CC(N)=O)NC(=O)[C@H]([C@@H](C)O)NC(=O)[C@H]([C@@H](C)CC)NC(=O)[C@H](CCCCN)NC1=O)[C@@H](C)O)[C@@H](C)O)[C@@H](C)O [GLFTLIKGAAKLIGKTTAKEAGKTGKLEMACKITNQC]	–	1.15 (≈ 4.4 µg/mL)	0.573 (≈ 2.2 µg/mL)	1.15 (≈ 4.4 µg/mL)	0.573 (≈ 2.2 µg/mL)	–
CC[C@H](C)[C@H](NC(=O)[C@H](CC(C)C)NC(=O)[C@H](CCC(N)=O)NC(=O)[C@@H](NC(=O)[C@H](C)NC(=O)CNC(=O)[C@H](CCCCN)NC(=O)[C@H](CC(C)C)NC(=O)[C@H](CC(C)C)NC(=O)[C@@H](NC(=O)[C@H](Cc1ccccc1)NC(=O)[C@@H](NC(=O)CN)C(C)C)[C@@H](C)O)[C@@H](C)O)C(=O)NCC(=O)N[C@@H](CCCCN)C(=O)N[C@H](C(=O)N[C@@H](CC(C)C)C(=O)NCC(=O)N[C@@H](CCCCN)C(=O)N[C@@H](CCC(=O)O)C(=O)N[C@@H](CC(C)C)C(=O)NCC(=O)N[C@@H](CCCCN)C(=O)N[C@H](C(=O)NCC(=O)N[C@@H](CC(C)C)C(=O)N[C@@H](CCC(=O)O)C(=O)N[C@@H](CC(C)C)C(=O)N[C@@H](CCSC)C(=O)N[C@@H](C)C(=O)N[C@H]1CSSC[C@@H](C(=O)O)NC(=O)[C@H](CCC(N)=O)NC(=O)[C@H](CC(N)=O)NC(=O)[C@H]([C@@H](C)O)NC(=O)[C@H]([C@@H](C)CC)NC(=O)[C@H](CCCCN)NC1=O)[C@@H](C)O)[C@@H](C)O [GVFTLLKGATQLIGKTLGKELGKTGLELMACKITNQC]	–	4.07 (≈ 15.8 µg/mL)	2.04 (≈ 7.9 µg/mL)	2.04 (≈ 7.9 µg/mL)	2.04 (≈ 7.9 µg/mL)	–
CC[C@H](C)[C@H](NC(=O)[C@H](C)NC(=O)[C@H](CC(C)C)NC(=O)[C@H](CS)NC(=O)[C@@H](N)Cc1cnc[nH]1)C(=O)NCC(=O)N[C@@H](CCCN=C(N)N)C(=O)N[C@@H](CCCN=C(N)N)C(N)=O [HCLAIGRR]	> 69.2	–	–	–	–	MIC [17]: 25.9 µM; MIC [18]: 9.73 µM
CC[C@H](C)[C@H](N)C(=O)N[C@H](C(=O)N[C@@H](CO)C(=O)N[C@H](C(=O)N[C@H](C(=O)NCC(=O)N[C@@H](CCCCN)C(=O)N[C@@H](CC(C)C)C(=O)N[C@H](C(=O)N[C@@H](CCCCN)C(=O)N[C@@H](Cc1c[nH]c2ccccc12)C(=O)N[C@H](C(=O)N[C@H](C(=O)N[C@@H](CC(=O)O)C(=O)N[C@H](C(=O)N[C@H](C(=O)O)C(C)C)[C@@H](C)O)[C@@H](C)CC)[C@@H](C)CC)C(C)C)[C@@H](C)CC)[C@@H](C)O)[C@@H](C)CC [IISTIGKLVKWIIDTV]	18.8 (≈ 33.8 µg/mL)	–	–	–	–	MIC [19]: 8 µM (≈ 14.4 µg/mL)
CC[C@H](C)[C@H](N)C(=O)N[C@@H](CC(C)C)C(=O)N1CCC[C@H]1C(=O)N[C@@H](Cc1ccccc1)C(=O)N[C@H](C(=O)N[C@@H](C)C(=O)NCC(=O)N[C@H](C(=O)N[C@@H](C)C(=O)N[C@@H](C)C(=O)N[C@@H](CCC(=O)O)C(=O)N[C@@H](CCSC)C(=O)N[C@@H](CCSC)C(=O)N[C@@H](CCC(=O)O)C(=O)N[C@@H](Cc1cnc[nH]1)C(=O)N[C@H](C(=O)N[C@@H](Cc1ccc(O)cc1)C(=O)N[C@H]1CSSC[C@@H](C(=O)O)NC(=O)[C@H](CCCCN)NC(=O)[C@H](CCCCN)NC(=O)[C@H](CO)NC(=O)[C@H](C)NC(=O)[C@H](C)NC1=O)C(C)C)C(C)C)C(C)C [ILPFVAGVAAEMMEHVYCAASKKC]	–	5.1 (≈ 13.1 µg/mL)	10.2 (≈ 26.2 µg/mL)	5.1 (≈ 13.1 µg/mL)	20.4 (≈ 52.4 µg/mL)	–
CC[C@H](C)[C@H](N)C(=O)N[C@@H](CC(C)C)C(=O)N1CCC[C@H]1C(=O)N[C@@H](Cc1ccccc1)C(=O)N[C@H](C(=O)N[C@@H](C)C(=O)NCC(=O)N[C@H](C(=O)N[C@@H](C)C(=O)N[C@@H](C)C(=O)N[C@@H](CCSC)C(=O)N[C@@H](CCC(=O)O)C(=O)N[C@@H](CCSC)C(=O)N[C@@H](CCC(=O)O)C(=O)N[C@@H](Cc1cnc[nH]1)C(=O)N[C@H](C(=O)N[C@@H](Cc1ccc(O)cc1)C(=O)N[C@H]1CSSC[C@@H](C(=O)O)NC(=O)[C@H](CCCCN)NC(=O)[C@H](CCCCN)NC(=O)[C@H](CO)NC(=O)[C@H](C)NC(=O)[C@H](C)NC1=O)C(C)C)C(C)C)C(C)C [ILPFVAGVAAMEMEHVYCAASKKC]	–	3.81 (≈ 9.79 µg/mL)	1.91 (≈ 4.9 µg/mL)	3.81 (≈ 9.79 µg/mL)	3.81 (≈ 9.79 µg/mL)	–
CC[C@H](C)[C@H](N)C(=O)N[C@@H](CC(C)C)C(=O)N1CCC[C@H]1C(=O)N[C@@H](Cc1c[nH]c2ccccc12)C(=O)N[C@@H](CCCCN)C(=O)N[C@@H](Cc1c[nH]c2ccccc12)C(=O)N1CCC[C@H]1C(=O)N[C@@H](Cc1ccccc1)C(=O)N[C@@H](Cc1ccccc1)C(=O)N1CCC[C@H]1C(=O)N[C@@H](Cc1c[nH]c2ccccc12)C(=O)N[C@@H](CCCN=C(N)N)C(=O)N[C@@H](CCCN=C(N)N)C(N)=O [ILPWKWPFFPWRR]	–	–	–	–	–	MIC [17]: 2 µM (≈ 3.66 µg/mL)
